Results published in patent US11407717B2, “Benzimidazole derivatives and use thereof as IDH1 inhibitors” (KPC PHARMACEUTICALS, INC., priority 2018, dated 2022).
Where two headings read alike, the source gives them in different places. Each block holds one compound with its values, some of them ahead of it.

What was measured:
IDH1(R132H) = IDH1(R132H) (Homo sapiens, UniProt O75874, R132H); test: IDH1 in vitro enzyme activity test (IDH1 R132H); type: biochemical; settings: 1500 μM α-KG + 15 μM NADPH
Chain of IDH1(R132H) (O75874 whole entry R132H): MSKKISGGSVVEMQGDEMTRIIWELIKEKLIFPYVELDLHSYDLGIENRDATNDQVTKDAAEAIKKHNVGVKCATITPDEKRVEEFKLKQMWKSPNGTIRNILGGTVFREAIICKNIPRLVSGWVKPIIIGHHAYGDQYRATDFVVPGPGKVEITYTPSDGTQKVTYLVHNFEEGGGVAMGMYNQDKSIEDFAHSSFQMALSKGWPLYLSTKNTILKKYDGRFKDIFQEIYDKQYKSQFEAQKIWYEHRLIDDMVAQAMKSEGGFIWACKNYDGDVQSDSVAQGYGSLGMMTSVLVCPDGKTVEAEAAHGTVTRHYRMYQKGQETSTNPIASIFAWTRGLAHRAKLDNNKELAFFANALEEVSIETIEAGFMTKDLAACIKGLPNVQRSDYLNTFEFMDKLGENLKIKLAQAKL
Method: (§1) The IDH1 mutant catalyzes the NADPH-dependent reduction of α-KG (α-ketoglutarate) to 2-HG (2-hydroxyglutarate), and the consumed NADPH can be read by fluorescence.
(§2) Basic reaction buffer: 50 mM KH2PO4, pH 7.5, 10 mM MgCl2, 10% glycerol, 150 mM NaCl, 0.05% BSA (bovine serum albumin), 2 mM b-ME (2-mercaptoethanol), 0.003% Brij35 (polyethylene glycol lauryl ether)
(§3) Substrates and cofactors: • IDH1 wt (wild type): 65 μM isocitrate+50 μM NADP • IDH1(R132H): 1500 μM α-KG+15 μM NADPH • IDH1(R132C): 500 μM α-KG+15 μM NADPH
(§4) 1.33× enzyme (no enzyme in the control well), buffer, and NADP or NADPH (control well) were added into the wells of the reaction plate. The test compound was dissolved in 100% DMSO and then added to the enzyme mixture (Echo550, nanoliter level), and incubated for 60 minutes after simple centrifugation. A mixture of 4× substrate and cofactor were added to start the reaction. After simple centrifugation, the plate was incubated under shaking at room temperature for 45 minutes. A mixture of 3× lipoamide dehydrogenase and Resazurin was prepared, added to the reaction solution to test the amount of NADPH generated or remaining, and incubated at room temperature for 10 minutes after simple centrifugation. Multifunctional microplate reader Envision was used to measure (Ex/Em=535/590 nm).

IDH1(R132C) = IDH1(R132C) (Homo sapiens, UniProt O75874, R132C); test: IDH1 in vitro enzyme activity test (IDH1 R132C); type: biochemical; settings: 500 μM α-KG + 15 μM NADPH
Chain of IDH1(R132C) (O75874 whole entry R132C): as the sequence (O75874 whole entry R132H) above, with H132C counted along it
Method: as §1, §2, §3, §4

IDH1 wt (wild type) = IDH1 wt (wild type) (Homo sapiens, UniProt O75874); test: IDH1 in vitro enzyme activity test (IDH1 wild type); type: biochemical; settings: 65 μM isocitrate + 50 μM NADP
Chain of IDH1 wt (wild type) (O75874 whole entry): as the sequence (O75874 whole entry R132H) above, with H132R counted along it
Method: as §1, §2, §3, §4

[1] = system: U87MG-IDH1-R132H cell strain; test: IDH1 cytological activity test, 2HG content in cell culture supernatant by LC-MS; type: cell-based; settings: Homo sapiens, U-87 MG, 72 h; 2-HG in supernatant, 3 days incubation
Method: In this study, the compound was incubated with the IDH1 mutant cell line, and the 2HG content in the cell culture supernatant was detected by LC-MS to determine the inhibitory activity of the compound on the IDH1 mutant. IDH1 catalyzes the […] of isocitrate to α-ketoglutarate (α-KG) in organisms, and the IDH1 mutant further catalyzes the reduction of α-KG to 2-hydroxyglutarate (2HG). The U87MG-IDH1-R132H cell strain is a stable transfected cell strain that can stably express IDH1-R132H mutant, obtained via screening by transfecting U87MG cells with IDH1-R132H, and the HT1080 cell strain contains an endogenous IDH1-R132C mutant. 1) The compound was diluted 3-fold with DMSO and then added to the cell culture plate, at a total of 10 concentrations, double duplicate holes for each concentration. The negative control well contains only DMSO, and the positive control well contained BAY1436032 at a final concentration of 5 μM. The final concentration of DMSO in all wells was 0.5%. 2) The IDH1 mutant cell line was seeded into a cell culture plate containing the compound at a density of 40,000 cells/well. The cells were incubated with the compound in a incubator at 37° C., 5% CO2 for 3 days. […]

[2] = Evaluation of pharmacokinetics in mice; type: in vivo, CD-1 mice; settings: for AUC(0-t): read-out: Area under curve AUC0-last
Method: 1) Experimental drug: Example 6;
2) Experimental animals: 8 male CD-1 mice aged 7-10 weeks, divided into 2 groups, 4 in each group;
3) Drug preparation: for the tail vein injection group, an appropriate amount of the drug was weighted, and dissolved in a mixed solvent of DMSO: 20% hydroxypropyl betacyclodextrin (HPbCD)=10:90 to prepare a 0.5 mg/mL solution; for the intragastric administration group, an appropriate amount of the drug was weighted, and dissolved in DMSO: polyoxyethylene castor oil EL (Cremophor EL):5% sulfobutyl cyclodextrin (Captisol)=5:10:85 to prepare a suspension.
Animals in group 1 were given a single injection of the drug at a dose of 1 mg/kg and a concentration of 0.5 mg/mL via tail vein, and animals in group 2 were given a compound at a dose of 20 mg/kg and a concentration of 2 mg/mL via gavage. Plasma samples were cross-collected from the animals at 0.0833 (tail vein injection group only), 0.25, 0.5, 1, 2, 4, 6, 8 and 24 hours after administration. The LC-MS/MS method was used to determine the drug concentration in the plasma sample, and the kinetic parameters of the tested drug are shown in Table 4: […]

SMILES: O=C(O)CCc1ccc2c(c1)nc(Nc1ccc(OC(F)(F)F)cc1)n2[C@@H](c1ccccc1)C1CC1 [Example 12]
IC50 (IDH1(R132H)): 15.7 nM

SMILES: CC(C)(C)[C@H](c1ccccc1)n1c(Nc2ccc(OC(F)(F)F)cc2)nc2cc(CCC(=O)O)ccc21 [Example 11]
IC50 (IDH1(R132H)): 24.5 nM

SMILES: O=C(O)CCc1ccc2c(c1)nc(Nc1ccc(OC(F)(F)F)cc1)n2[C@@H]1CCc2ccccc21 [Example 8]
IC50 (IDH1(R132H)): 2.88 nM

SMILES: O=C(O)CCc1ccc2c(c1)nc(Nc1ccc(OC(F)(F)F)cc1)n2C(c1ccccc1)c1ccccc1 [Example 9]
IC50 (IDH1(R132H)): 21.9 nM

SMILES: O=C(O)CCc1ccc2c(c1)nc(Nc1ccc(OC(F)(F)F)cc1)n2[C@@H]1CCCc2ccccc21 [Example 6]
IC50 (IDH1(R132H)): 3.94 nM
IC50 (IDH1(R132C)): 12.8 nM
IC50 (IDH1 wt (wild type)): > 10000 nM
IC50 [1]: 38.2 nM
pharmacokinetic properties in mice (in words) ([2]; mice): good pharmacokinetic properties
AUC(0-t) ([2]; mouse, iv, male CD-1 mice, tail vein injection, 1 mg/kg, plasma): 15.5 µM·h
C0 ([2]; mouse, iv, male CD-1 mice, tail vein injection, 1 mg/kg, plasma, read-out: Initial concentration C0): 3.54 µM
clearance ([2]; mouse, plasma, iv, male CD-1 mice, tail vein injection, 1 mg/kg, read-out: Clearance Cl): 2.17 mL/min/kg
half-life ([2]; mouse, plasma, iv, male CD-1 mice, tail vein injection, 1 mg/kg, read-out: Half-life T1/2 (converted)): 2.9 h
Vd ([2]; mouse, plasma, iv, male CD-1 mice, tail vein injection, 1 mg/kg, read-out: Volume of distribution Vd): 0.69 L/kg
bioavailability ([2]; mouse, plasma, po, male CD-1 mice, intragastric 20 mg/kg vs tail vein 1 mg/kg, read-out: Bioavailability F): 99.1%
Tmax ([2]; mouse, plasma, po, male CD-1 mice, intragastric administration, 20 mg/kg, read-out: Time of highest concentration T1/2 (converted)): 1 h
AUC(0-t) ([2]; mouse, po, male CD-1 mice, intragastric administration, 20 mg/kg, plasma): 307 µM·h
Cmax ([2]; mouse, po, male CD-1 mice, intragastric administration, 20 mg/kg, plasma, read-out: Highest concentration Cmax): 33.4 µM

Results, then the compound that gave them:

IC50 (IDH1(R132H)): 320 nM
SMILES: C[C@H](c1ccc(Cl)cc1)n1c(Nc2ccc(OC(F)(F)F)cc2)nc2cc(CCC(=O)O)ccc21 [Example 3]

IC50 (IDH1(R132H)): 344 nM
SMILES: COc1ccccc1[C@@H](C)n1c(Nc2ccc(OC(F)(F)F)cc2)nc2cc(CCC(=O)O)ccc21 [Example 10]

IC50 (IDH1(R132H)): 126 nM
SMILES: C[C@H](c1ccc(F)cc1)n1c(Nc2ccc(OC(F)(F)F)cc2)nc2cc(CCC(=O)O)ccc21 [Example 4]

IC50 (IDH1(R132H)): 464 nM
SMILES: C[C@@H](c1ccccc1)n1c(Nc2ccc(OC(F)(F)F)cc2)nc2cc(CCC(=O)O)ccc21 [Example 2]

IC50 (IDH1(R132H)): 121 nM
SMILES: C[C@H](c1cccc(Cl)c1)n1c(Nc2ccc(OC(F)(F)F)cc2)nc2cc(CCC(=O)O)ccc21 [Example 7]

IC50 (IDH1(R132H)): 89.5 nM
SMILES: CC[C@H](c1ccccc1)n1c(Nc2ccc(OC(F)(F)F)cc2)nc2cc(CCC(=O)O)ccc21 [Example 5]

IC50 (IDH1(R132H)): 7.9 nM
IC50 (IDH1(R132C)): 102 nM
IC50 (IDH1 wt (wild type)): > 10000 nM
IC50 [1]: 92.8 nM
SMILES: C[C@H](c1ccccc1)n1c(Nc2ccc(OC(F)(F)F)cc2)nc2cc(CCC(=O)O)ccc21 [Example 1]
